Results from patent publication US20020137929A1, “1 - (3-heterocyclylphenyl) isothiourea, -isourea, -guanidine and -amidine herbicidal agents” (Intellectual Property Department, BASF Aktiengesellschaft, priority 1998, published 2002).

Assays:
ZEAMX (Corn, Field) = assay: Postemergence herbicidal evaluation; assay type: in vivo, Zea mays; details: postemergence
How it was run: (§1)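 Two-week seedlings sprayed postemergence at 40 psi; formulation: 1:1 acetone/water, 0.5% TWEEN 20; application ≈0.0156–0.500 kg/ha. Greenhouse grow-out, then 0–9 visual scoring at 4–5 weeks.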

SETVI (Foxtail, Green) [1] = assay: Preemergence herbicidal evaluation; assay type: in vivo, Setaria viridis; details: rated 4-5 weeks after treatment
How it was run: (§2)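 Rating at 4–5 wk post-spray on a 0–9 visual scale vs control. Application: aqueous acetone, ~0.0156–0.500 kg/ha, to soil surface after seeding, preemergence.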

SETVI (Foxtail, Green) [2] = assay: Postemergence herbicidal evaluation; assay type: in vivo, Setaria viridis; details: postemergence
How it was run: as §1

ORYSAT (Rice, Tebonnet) = assay: Postemergence herbicidal evaluation; assay type: in vivo, Oryza sativa, (L.) Tebonnet; details: postemergence
How it was run: as §1

[3] = system: GLXMAW (Soybean, Williams); assay: Postemergence herbicidal evaluation; assay type: in vivo, Glycine max, (L.) Merr. cv Williams; details: postemergence
How it was run: as §1

AMBEL (Ragweed, Common) = assay: Preemergence herbicidal evaluation; assay type: in vivo, Ambrosia artemisifolia; details: rated 4-5 weeks after treatment
How it was run: as §2

CYPIR (Rice Flatsedge) = assay: Preemergence weed control under flooded paddy conditions; assay type: in vivo, Cyperus iria; details: rated 3-4 weeks after treatment
How it was run: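 Seeds or propagules sown in top 0.5 cm of silt loam soil, flooded 1.5 to 3 cm above surface throughout. Compound in 50/50 v/v aqueous/acetone pipetted into flood water at about 0.0313 to 0.500 kg/ha. Visual 0-9 rating versus control after three to four weeks in greenhouse.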

[4] = system: TRZAWR (Wheat, Winter, cv Riband); assay: Postemergence herbicidal evaluation; assay type: in vivo, Triticum aestivum; details: postemergence
How it was run: as §1

[5] = system: CHEAL (Lambsquarters, Common); assay: Postemergence herbicidal evaluation; assay type: in vivo, Chenopodium album; details: postemergence
How it was run: as §1

ABUTH (Velvetleaf) = assay: Postemergence herbicidal evaluation; assay type: in vivo, Abutilon theophrasti; details: postemergence
How it was run: as §1

GALAP (Galium) = assay: Preemergence herbicidal evaluation; assay type: in vivo, Galium aparine; details: rated 4-5 weeks after treatment
How it was run: as §2

[6] = rate 0.0156 kg/ha, rating scale 0-9
[7] = rate 0.0313 kg/ha, rating scale 0-9
[8] = rate 0.0625 kg/ha, rating scale 0-9
[9] = rate 0.1250 kg/ha, rating scale 0-9
[10] = rate 0.2500 kg/ha, rating scale 0-9

Cc1cccc(CN2C(=O)CSC2=Nc2cc(-n3c(=O)cc(C(F)(F)F)n(C)c3=O)c(F)cc2Cl)c1 [Compound 130, 3-{4-Chloro-2-fluoro-5-{[3-(m-methylbenzyl)-4-oxo-2-thiazolidinylidene]amino}phenyl}-1-methyl-6-(trifluoromethyl)-2,4 (1H, 3H)-pyrimidinedione]
6.0: Preemergence herbicidal rating SETVI (SETVI (Foxtail, Green) [1]; [7]) | herbicidal rating SETVI (SETVI (Foxtail, Green) [2]; rate 0.0313 kg/ha) | herbicidal effect rating, CYPIR (CYPIR (Rice Flatsedge); 0.2500 kg/ha)
9.0: Preemergence herbicidal rating SETVI (SETVI (Foxtail, Green) [1]; [10]) | Preemergence herbicidal rating AMBEL (AMBEL (Ragweed, Common); [9]) | Preemergence herbicidal rating AMBEL (AMBEL (Ragweed, Common); [10]) | herbicidal rating CHEAL ([5]; rate 0.0313 kg/ha) | herbicidal rating CHEAL ([5]; rate 0.0625 kg/ha) | herbicidal rating ABUTH (ABUTH (Velvetleaf); rate 0.0156 kg/ha) | herbicidal rating ABUTH (ABUTH (Velvetleaf); rate 0.0313 kg/ha) | herbicidal rating ABUTH (ABUTH (Velvetleaf); rate 0.0625 kg/ha)
3.5: herbicidal rating ORYSAT (ORYSAT (Rice, Tebonnet); rate 0.0625 kg/ha) | herbicidal rating TRZAWR ([4]; rate 0.0156 kg/ha) | herbicidal rating TRZAWR ([4]; rate 0.0313 kg/ha)
0.0: Preemergence herbicidal rating SETVI (SETVI (Foxtail, Green) [1]; [6]) | Preemergence herbicidal rating AMBEL (AMBEL (Ragweed, Common); [6]) | herbicidal effect rating, CYPIR (CYPIR (Rice Flatsedge); 0.0313 kg/ha) | Preemergence herbicidal rating GALAP (GALAP (Galium); [6]) | Preemergence herbicidal rating GALAP (GALAP (Galium); [8])
8.0: herbicidal rating GLXMAW ([3]; rate 0.0625 kg/ha)
4.0: herbicidal rating SETVI (SETVI (Foxtail, Green) [2]; rate 0.0156 kg/ha) | herbicidal effect rating, CYPIR (CYPIR (Rice Flatsedge); 0.1250 kg/ha) | herbicidal rating TRZAWR ([4]; rate 0.0625 kg/ha)
2.0: herbicidal effect rating, CYPIR (CYPIR (Rice Flatsedge); 0.0625 kg/ha) | Preemergence herbicidal rating GALAP (GALAP (Galium); [9]) | Preemergence herbicidal rating GALAP (GALAP (Galium); [10])
5.5: herbicidal rating GLXMAW ([3]; rate 0.0156 kg/ha)
4.5: herbicidal rating ZEAMX (ZEAMX (Corn, Field); rate 0.0156 kg/ha) | herbicidal rating ZEAMX (ZEAMX (Corn, Field); rate 0.0313 kg/ha)
7.0: Preemergence herbicidal rating SETVI (SETVI (Foxtail, Green) [1]; [8]) | Preemergence herbicidal rating SETVI (SETVI (Foxtail, Green) [1]; [9]) | herbicidal rating SETVI (SETVI (Foxtail, Green) [2]; rate 0.0625 kg/ha) | herbicidal rating GLXMAW ([3]; rate 0.0313 kg/ha) | Preemergence herbicidal rating AMBEL (AMBEL (Ragweed, Common); [8]) | herbicidal rating CHEAL ([5]; rate 0.0156 kg/ha)
1.0: Preemergence herbicidal rating AMBEL (AMBEL (Ragweed, Common); [7])
3.0: herbicidal rating ORYSAT (ORYSAT (Rice, Tebonnet); rate 0.0156 kg/ha) | herbicidal rating ORYSAT (ORYSAT (Rice, Tebonnet); rate 0.0313 kg/ha)
5.0: herbicidal rating ZEAMX (ZEAMX (Corn, Field); rate 0.0625 kg/ha)

Cn1c(C(F)(F)F)cc(=O)n(-c2cc(N=C3SCC(=O)N3Cc3ccco3)c(Cl)cc2F)c1=O [Compound 122, 3-{4-Chloro-2-fluoro-5-[(3-furfuryl-4-oxo-2-thiazolidinylidene)amino]phenyl}-1-methyl-6-(trifluoromethyl)-2,4(1H,3H)-pyrimidinedione]
2.0: Preemergence herbicidal rating AMBEL (AMBEL (Ragweed, Common); rate 0.1250 kg/ha) | Preemergence herbicidal rating AMBEL (AMBEL (Ragweed, Common); rate 0.2500 kg/ha) | Preemergence herbicidal rating GALAP (GALAP (Galium); rate 0.0313 kg/ha)
3.5: herbicidal rating ORYSAT (ORYSAT (Rice, Tebonnet); rate 0.0156 kg/ha) | herbicidal rating ORYSAT (ORYSAT (Rice, Tebonnet); rate 0.0313 kg/ha) | herbicidal rating ORYSAT (ORYSAT (Rice, Tebonnet); rate 0.0625 kg/ha) | herbicidal rating TRZAWR ([4]; rate 0.0313 kg/ha)
7.0: herbicidal rating ZEAMX (ZEAMX (Corn, Field); rate 0.0313 kg/ha) | herbicidal rating ZEAMX (ZEAMX (Corn, Field); rate 0.0625 kg/ha) | herbicidal rating ZEAMX (ZEAMX (Corn, Field); rate 0.1250 kg/ha) | herbicidal rating SETVI (SETVI (Foxtail, Green) [2]; rate 0.0313 kg/ha) | herbicidal effect rating, CYPIR (CYPIR (Rice Flatsedge); 0.0625 kg/ha) | herbicidal effect rating, CYPIR (CYPIR (Rice Flatsedge); 0.1250 kg/ha)
6.0: herbicidal rating SETVI (SETVI (Foxtail, Green) [2]; rate 0.0156 kg/ha) | herbicidal rating CHEAL ([5]; rate 0.0156 kg/ha) | Preemergence herbicidal rating GALAP (GALAP (Galium); rate 0.5000 kg/ha)
4.0: herbicidal effect rating, CYPIR (CYPIR (Rice Flatsedge); 0.0313 kg/ha) | Preemergence herbicidal rating GALAP (GALAP (Galium); rate 0.1250 kg/ha) | Preemergence herbicidal rating GALAP (GALAP (Galium); rate 0.2500 kg/ha)
5.0: herbicidal rating ORYSAT (ORYSAT (Rice, Tebonnet); rate 0.1250 kg/ha) | herbicidal rating TRZAWR ([4]; rate 0.1250 kg/ha)
0.0: Preemergence herbicidal rating SETVI (SETVI (Foxtail, Green) [1]; rate 0.0156 kg/ha) | Preemergence herbicidal rating SETVI (SETVI (Foxtail, Green) [1]; rate 0.0313 kg/ha) | Preemergence herbicidal rating SETVI (SETVI (Foxtail, Green) [1]; rate 0.0625 kg/ha) | Preemergence herbicidal rating AMBEL (AMBEL (Ragweed, Common); rate 0.0156 kg/ha) | Preemergence herbicidal rating AMBEL (AMBEL (Ragweed, Common); rate 0.0313 kg/ha) | Preemergence herbicidal rating AMBEL (AMBEL (Ragweed, Common); rate 0.0625 kg/ha)
8.0: herbicidal effect rating, CYPIR (CYPIR (Rice Flatsedge); 0.2500 kg/ha)
9.0: Preemergence herbicidal rating SETVI (SETVI (Foxtail, Green) [1]; rate 0.5000 kg/ha) | herbicidal rating SETVI (SETVI (Foxtail, Green) [2]; rate 0.0625 kg/ha) | herbicidal rating SETVI (SETVI (Foxtail, Green) [2]; rate 0.1250 kg/ha) | herbicidal rating CHEAL ([5]; rate 0.0313 kg/ha) | herbicidal rating CHEAL ([5]; rate 0.0625 kg/ha) | herbicidal rating CHEAL ([5]; rate 0.1250 kg/ha) | herbicidal rating ABUTH (ABUTH (Velvetleaf); rate 0.0156 kg/ha) | herbicidal rating ABUTH (ABUTH (Velvetleaf); rate 0.0313 kg/ha) | herbicidal rating ABUTH (ABUTH (Velvetleaf); rate 0.0625 kg/ha) | herbicidal rating ABUTH (ABUTH (Velvetleaf); rate 0.1250 kg/ha)
4.5: herbicidal rating ZEAMX (ZEAMX (Corn, Field); rate 0.0156 kg/ha) | herbicidal rating TRZAWR ([4]; rate 0.0625 kg/ha)
5.5: herbicidal rating GLXMAW ([3]; rate 0.0156 kg/ha)
3.0: Preemergence herbicidal rating AMBEL (AMBEL (Ragweed, Common); rate 0.5000 kg/ha) | herbicidal rating TRZAWR ([4]; rate 0.0156 kg/ha) | Preemergence herbicidal rating GALAP (GALAP (Galium); rate 0.0156 kg/ha) | Preemergence herbicidal rating GALAP (GALAP (Galium); rate 0.0625 kg/ha)
6.5: herbicidal rating GLXMAW ([3]; rate 0.0313 kg/ha) | herbicidal rating GLXMAW ([3]; rate 0.0625 kg/ha) | herbicidal rating GLXMAW ([3]; rate 0.1250 kg/ha)
1.0: Preemergence herbicidal rating SETVI (SETVI (Foxtail, Green) [1]; rate 0.1250 kg/ha) | Preemergence herbicidal rating SETVI (SETVI (Foxtail, Green) [1]; rate 0.2500 kg/ha)
